Patent US10967086B2, “Silver nanoparticle-enhanced photosensitizers as antibiofilm agents” (University Of Cincinnati, priority 2014, dated 2021)
Structures can show the parent of a compound that is named as a salt.

Columns and labels:
[1] = Loading efficiency of photosensitizers in the hybrids (UV-Vis absorption); type: physicochemical; details: named photosensitizer loaded into Ag@mSiO2@photosensitizer hybrid; Example 1
Description: The loading efficiencies of the photosensitizers in the hybrids were determined by UV-Vis absorption. […] Zeta potential measurements were carried out to further investigate the surface properties of the hybrids.
The morphology of the Ag@mSiO2@photosensitizer hybrids was characterized by a Phillips Biotwin 12 transmission electron microscope (FEI). TEM samples were prepared by directly applying 10 μL of the sample ethanol solution onto a carbon-coated copper grid (300 mesh, EMS) and left to dry at room temperature. UV-Vis absorption spectra were measured using a UV-Vis spectrometer (USB4000-ISS, Ocean Optics). The loading efficiency of photosensitizers was determined by measuring the photosensitizers in the supernatant after centrifugation via UV-Vis absorption spectra. The Ag^+ concentration was measured by a triple quadruple ICP-MS (ICP-QQQ, Agilent Technologies).

[2] = test system: Staphylococcus epidermidis (ATCC 35984); experiment: Photodynamic inactivation assay, white light, plate count; type: cell-based
Description: (§1) Photodynamic Inactivation Assays. Typically, overnight cultures of Staphylococcus epidermidis (ATCC 35984), Escherichia coli (ATCC 35218), and Acinetobacter baumannii (ATCC 19606) were inoculated into PBS buffer solution (pH=7.4) and mixed with a series of concentrations of Ag@mSiO2@HPIX hybrid, HPIX (dissolved in the same PBS buffer solution), or Ag@mSiO2 nanoparticles. All bacterial suspensions (200 μL) were then placed in the wells of 96-well plates. The final cell concentration of the suspensions was between about 10^6 and 10^7 colony-forming units per mL (CFU/mL). The wells were illuminated with different fluences. After illumination, a plate count was performed. Bacterial viability was determined by a modified version of the Miles and Misra method.
(§2) The suspensions were serially 10-fold diluted with PBS. Then, drops of 10 μL of each dilution were applied onto MH II agar plates. Plates were streaked in triplicate and incubated for 18-24 h at 37° C. in the dark before counting. A non-coherent, white light source with interchangeable fiber bundle (model LC-122, LumaCare) was used in all photoinactivation experiments. The irradiance at the position of the samples was kept at 300 mW/cm^2, as measured by a laser power meter (Model 840011, SPER Scientific).
Ag@mSiO2@HPIX was used as a model system in the PDI study. Ag@mSiO2@HPIX was first tested with S. epidermidis, a Gram-positive bacterium. […]

T. rubrum (ATCC 28188) = experiment: Photodynamic inactivation of T. rubrum, LED, plate count; type: cell-based, Tricophyton rubrum
Description: The in vitro PDI of T. rubrum (ATCC 28188) was investigated using different concentrations of Ag@mSiO2@HPIX hybrids, pure HPIX and Ag@mSiO2. Control experiments were carried out without the LED illumination. […] Separately, T. rubrum samples were treated with an LED light source (400 nm, 54 mW/cm2), after incubating for 30 min. with different concentrations of the Ag@mSiO2@HPIX hybrids, free HPIX, and Ag@mSiO2, respectively. […] Plate count method was employed to determine the viable fungal count, after the growth of the T. rubrum became visible. […] In these experiments, the pure HPIX and Ag@mSiO2@HPIX hybrids have the same concentration of HPIX while the amounts of Ag in Ag@mSiO2@HPIX hybrids and Ag@mSiO2 was also kept constant. The enhancement of antifungal PDI efficacy of Ag@mSiO2@HPIX hybrids is defined as log10(enhancement)=log10(Ag@mSiO2@HPIX_killing)−log10(Ag@mSiO2_killing)−log10(HPIX_killing)

[3] = test system: Escherichia coli (ATCC 35218) biofilm; experiment: Photodynamic inactivation of biofilms, LED, plate count; type: cell-based
Description: (§3) Typically, overnight biofilms of Escherichia coli (ATCC 35218), and S. aureus (MRSA) (ATCC BAA44) were washed with PBS buffer solution (pH=7.4), mixed with a series of concentrations of Ag@mSiO2@HPIX hybrid, HPIX (dissolved in the same PBS buffer solution), or Ag@mSiO2 nanoparticles, and these mixtures were incubated for an hour. All biofilms were illuminated with different fluences from a light emitting diode. After illumination, the biofilm was washed to remove the nanoparticle solution or HPIX and disrupted biofilm. A serial dilution was performed and 10 μL of each dilution was plated on an MHB place and incubated for 24 hours at 37° C. Bacterial biofilm viability was determined by a modified version of the Miles and Misra method.
as §2
(§4) The in vitro PDI of MRSA (ATCC BAA44) and E. coli (ATCC 35218) was investigated using different concentrations of Ag@mSiO2@HPIX hybrids, pure HPIX and Ag@mSiO2. Control experiments were carried out without the LED illumination. […] Separately, MRSA and E. coli samples were treated with an LED light source (400 nm, 1000 mW/cm2), after incubating for 1 h. with different concentrations of the Ag@mSiO2@HPIX hybrids, free HPIX, and Ag@mSiO2, respectively. […] Plate count method was employed to determine the viable biofilm count, after the growth of the biofilm became visible. […] In these experiments, the pure HPIX and Ag@mSiO2@HPIX hybrids have the same concentration of HPIX while the amounts of Ag in Ag@mSiO2@HPIX hybrids and Ag@mSiO2 was also kept constant.
(§5) The enhancement of antibiofilm PDI efficacy of Ag@mSiO2@HPIX hybrids is defined as log10(enhancement)=log10(Ag@mSiO2@HPIX_killing)−log10(Ag@mSiO2_killing)−log10(HPIX_killing)

[4] = test system: S. aureus (MRSA) (ATCC BAA44) biofilm; experiment: as above; type: cell-based
Description: as §3, §2, §4, §5

[5] = test system: Acinetobacter baumannii (ATCC 19606); experiment: Photodynamic inactivation assay, white light, plate count; type: cell-based; details: Example 2
Description: as §1
as §2, with “Scientific). […]” for “Scientific).”

[6] = test system: Escherichia coli (ATCC 35218); experiment: as above; type: cell-based; details: Example 2
Description: as §1
as §2, with “Scientific). […]” for “Scientific).”

[7] = dark control, tested concentrations
[8] = LED 400 nm, 1000 mW/cm2 (blue LED 1 W/cm^2, up to 90 min), after 1 h incubation

Compound: O=C([O-])c1ccc(C2=C3C=CC(=N3)C(c3ccc(C(=O)[O-])cc3)=C3C=CC(=N3)C(=c3ccc(=C([O-])[O-])cc3)c3ccc([n-]3)C(c3ccc(C(=O)[O-])cc3)=C3C=CC2=N3)cc1.[67Cu+2].[H+].[H+].[H+].[H+] [Cu-TCPP, Cu(II) meso-tetra(4-carboxyphenyl) porphine]
- loading efficiency [1]: 260.5 µg/mg

Compound: CC1=C(CCC(=O)O)c2cc3[nH]c(cc4nc(cc5[nH]c(cc1n2)c(C)c5C(C)O)C(C)=C4C(C)O)c(C)c3CCC(=O)O (stereo not shown) [HPIX, hematoporphyrin IX dihydrochloride]
- loading efficiency [1]: 27.4 µg/mg
- antibacterial effect without light illumination ([2]; parallel dark experiments): negligible antibacterial effect
- PDI efficacy under LED illumination (T. rubrum (ATCC 28188); LED 400 nm, 54 mW/cm2, after 30 min incubation): negligible PDI efficacy
- antifungal effect without LED illumination (T. rubrum (ATCC 28188); [7]): None of the Ag@mSiO2@HPIX hybrids, pure HPIX or Ag@mSiO2 at the tested concentrations shows antifungal effect
- PDI efficacy on biofilm under LED illumination [3, 8]: negligible PDI efficacy
- antibiofilm effects without LED illumination [3, 7]: None of the Ag@mSiO2@HPIX hybrids, pure HPIX or Ag@mSiO2 at the tested concentrations shows antibiofilm effects
- PDI efficacy on biofilm under LED illumination [4, 8]: negligible PDI efficacy
- antibiofilm effects without LED illumination [4, 7]: None of the Ag@mSiO2@HPIX hybrids, pure HPIX or Ag@mSiO2 at the tested concentrations shows antibiofilm effects

Compound: CCC1=C(C)c2cc3[nH]c(cc4[nH]c(cc5nc(cc1n2)C(C)=C5CC)c(C)c4CCC(=O)O)c(CCC(=O)O)c3C [PIX, meso-porphyrin IX]
- loading efficiency [1]: 750 µg/mg

Compound: O=C1OC2(c3cc(I)c(O)c(I)c3Oc3c2cc(I)c(O)c3I)c2c(Cl)c(Cl)c(Cl)c(Cl)c21 [RB, rose bengal]
- loading efficiency [1]: 33.6 µg/mg

Compound: Cc1cc2nc3c(=O)[nH]c(=O)nc-3n(C[C@H](O)[C@H](O)[C@H](O)CO)c2cc1C [Riboflavin, riboflavin]
- killing efficacy under visible light and near-infrared irradiations ([2]; Example 2): needs visible light excitation to display rather moderate antibacterial effect
- killing efficacy under visible light and near-infrared irradiations [5]: needs visible light excitation to display rather moderate antibacterial effect
- killing efficacy under visible light and near-infrared irradiations [6]: needs visible light excitation to display rather moderate antibacterial effect

Compound: O=C(O)c1ccc(-c2c3nc(c(-c4ccc(C(=O)O)cc4)c4ccc([nH]4)c(-c4ccc(C(=O)O)cc4)c4nc(c(-c5ccc(C(=O)O)cc5)c5ccc2[nH]5)C=C4)C=C3)cc1 [TCPP, meso-tetra(4-carboxyphenyl) porphine]
- loading efficiency [1]: 140.7 µg/mg

Compound: tris(2,2′-bipyridyl)dichlororuthenium(II) hexahydrate [RuBPy]
- loading efficiency [1]: 28.3 µg/mg
